From patent US7547799B1, “Method for producing phenolic compound” (Sabic Innovative Plastics IP B.V., priority 2008, dated 2009)

Assay: Determination of the solubility of BMSC in MeOH at 65° C. (with reflux)
Type: physicochemical
Protocol: Determination of the Solubility of BMSC in MeOH at 65° C. (with Reflux):
BMSC was loaded in a round bottom flask, a small amount of MeOH was added to the BMSC, to form a slurry. This mixture was heated up to 65° C. under reflux. MeOH was then continuously added under vigorous stirring, until a lucid and colorless solution was obtained.

solubility of BMSC in MeOH (lucid and colorless solution obtained) (65° C., under reflux, vigorous stirring): 5.8 mass %
solution of BMSC in MeOH obtainable under reflux (restated in the discussion): 6%
Structure (SMILES): COC(=O)c1ccccc1OC(=O)Oc1ccccc1C(=O)OC [BMSC, bismethylsalicylcarbonate]
